# Data published in patent publication US8158640B2, “Tetrahydroquinoline derivatives and a process for preparing the same” (Mitsubishi Tanabe Pharma Corporation, priority 2005, dated 2012).
# Target: T1, CETP (Homo sapiens, UniProt P11597)
# T1 construct: from tissue; host or cells: plasma from a healthy volunteer
# T1 sequence (P11597 18-493): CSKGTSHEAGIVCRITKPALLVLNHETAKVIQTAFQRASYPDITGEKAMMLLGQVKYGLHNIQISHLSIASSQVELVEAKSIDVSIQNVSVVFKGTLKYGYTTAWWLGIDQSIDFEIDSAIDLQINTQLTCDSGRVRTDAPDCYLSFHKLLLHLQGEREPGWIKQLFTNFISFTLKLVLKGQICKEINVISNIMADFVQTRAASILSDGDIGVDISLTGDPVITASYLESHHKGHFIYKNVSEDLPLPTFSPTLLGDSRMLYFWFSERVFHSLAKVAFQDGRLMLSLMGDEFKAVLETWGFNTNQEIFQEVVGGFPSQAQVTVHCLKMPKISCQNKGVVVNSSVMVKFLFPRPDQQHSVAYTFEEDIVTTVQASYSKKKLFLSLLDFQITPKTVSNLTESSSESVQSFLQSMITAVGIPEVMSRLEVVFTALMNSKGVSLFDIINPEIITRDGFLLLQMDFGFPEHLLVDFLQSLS
# Experiment: Inhibitory activity against CETP in vitro (fluorescent BODIPY-CE transfer, donor/acceptor microemulsion, human plasma)
# Assay type: biochemical
# Conditions: plasma from a healthy volunteer diluted to 0.64%; preincubation with test solution 37° C. 24 hours, then 3 hours with donor/acceptor microemulsion; fluorescence Ex.550 nm/Em.600 nm; read-out: IC50 (inhibition of CETP activity)
# Procedure: The inhibitory activity of the compounds of the present invention against CETP was tested in this experiment.
# A solution of 1-Palmitoyl-2-oleoyl-sn-glycero-3-phosphocholine (3.5 mg), cholesteryl oleate (3 mg) and triolein (0.7 mg) in chloroform was mixed and lipid was air-dried under nitrogen gas to remove solvent. 1,4-Dioxane (0.25 ml) was then added and the mixture was stirred for dissolution. The resultant lipid solution (0.2 ml) was slowly injected under the surface of Tris-saline-EDTA(TSE) buffer solution [10 mM Tris/HCl (pH 7.4), 0.15M NaCl, 2 mM EDTA] (10 ml) with Hamilton syringe, while sonicating in ice-bath. After 1-hour-sonication in ice-bath, the solution was stored at 4° C.
# A solution of egg PC (phosphatidylcholine) (0.33 mg) and BODIPY-CE (0.62 mg) in chloroform was mixed. After removing solvent by air-drying lipid under nitrogen gas, TSE buffer solution (3 ml) was added and the solution was sonicated in ice-bath. This solution was filtered to sterilize through 0.22 μm filter and stored at 4° C.
# A test solution was prepared using dimethyl sulfoxide as a solvent. Plasma from a healthy volunteer was diluted to 0.64% with TSE buffer, and to the resultant plasma solution (187 μl) was added a test solution (3 μl) or the solvent alone followed by incubation at 37° C. for 24 hours. After addition of TSE buffer solution (10 μl) containing 5% donor micro-emulsion and 5% acceptor microemulsion, the mixture was incubated at 37° C. for 3 hours. […] CETP activity was defined as the difference between the measurements obtained before incubation and after incubation. The decreasing rate of the difference in the sample was defined as the inhibition rate of CETP activity. IC50 for each sample was calculated from the inhibition rate of CETP activity.
row,Compound,IC50
1,CCOC(=O)N1c2ccc(C(F)(F)F)cc2[C@@H](N(Cc2cc(C(F)(F)F)cc(C(F)(F)F)c2)c2ncc(N(C)CCC(=O)O)cn2)C[C@H]1CC [Example 127],0.89 nM
2,CCOC(=O)N1c2ccc(C(F)(F)F)cc2C(N(Cc2cc(C(F)(F)F)cc(C(F)(F)F)c2)c2ncc(OCCCCC(=O)O)cn2)CC1CC (stereo not drawn) [Example 198],0.66 nM
3,"CCOC(=O)N1c2ccc(C(F)(F)F)cc2[C@@H](N(Cc2cc(C(F)(F)F)cc(C(F)(F)F)c2)c2ccc(OCCCC(=O)O)cn2)C[C@H]1CC [Example 231, (2R,4S)-4-{[3,5-bis(trifluoromethyl)benzyl]-[5-(3-carboxypropoxy)pyridin-2-yl]}amino-2-ethyl-6-trifluoromethyl-3,4-dihydro-2H-quinoline-1-carboxylic acid ethyl ester]",0.53 nM
4,"CCOC(=O)N1c2ccc(C(F)(F)F)cc2[C@@H](N(Cc2cc(C#N)cc(C(F)(F)F)c2)c2ncc(N3CCC(C(=O)O)CC3)cn2)C[C@H]1CC [Example 235, (2R,4S)-4-{[5-(4-carboxypiperidin-1-yl)pyrimidin-2-yl]-(3-cyano-5-trifluoromethylbenzyl)}amino-2-ethyl-6-trifluoromethyl-3,4-dihydro-2H-quinoline-1-carboxylic acid ethyl ester]",2.7 nM
5,"(2R*,4S*)-4-{[3,5-bis(trifluoromethyl)benzyl]-[(5-morpholin-4-yl)pyrimidin-2-yl]}amino-2-ethyl-6-trifluoromethyl-3,4-dihydro-2H-quinoline-1-carboxylic acid 2-hydroxyethyl ester [Example 174]",0.23 nM
6,"(2R,4S)-4-{[3,5-bis(trifluoromethyl)-benzyl]-(5-carboxypyrimidin-2-yl)}amino-2-ethyl-6-trifluoromethyl-3,4-dihydro-2H-quinoline-1-carboxylic acid ethyl ester [Example 16]",4.2 nM
7,"(2R,4S)-4-{[3,5-bis(trifluoromethyl)benzyl]-[5-(2-methoxyethoxy)pyrimidin-2-yl]}amino-2-ethyl-6-trifluoromethyl-3,4-dihydro-2H-quinoline-1-carboxylic acid 2-carboxyethyl ester [Example 291]",0.32 nM
8,"(2R,4S)-4-{[3,5-bis(trifluoromethyl)benzyl]-[5-(morpholin-4-yl)-pyrimidin-2-yl]}amino-2-ethyl-6-trifluoromethyl-3,4-dihydro-2H-quinoline-1-carboxylic acid ethyl ester [Example 1]",0.17 nM
9,"(2R,4S)-4-{[3,5-bis(trifluoromethyl)benzyl]-[5-(morpholin-4-yl)pyrimidin-2-yl]}amino-2-ethyl-6-trifluoromethyl-3,4-dihydro-2H-quinoline-1-carboxylic acid 5-carboxypentyl ester [Example 275]",0.18 nM
